# According to patent publication USRE38761E1, “Styryl compounds which inhibit EGF receptor protein tyrosine kinase” (Yissum Research Development Company of the Hebrew …, priority 1987, dated 2005):
# Read-outs that look alike come from different tables or passages of the source.
# Experiments:
# EGF receptor [1] = target: T1, EGF receptor (Homo sapiens, UniProt P00533); assay: EGF-receptor kinase (PTK) activity inhibition on extracted EGF receptors, poly(GAT) substrate, Dixon analysis; assay type: biochemical; set-up: EGF receptors were prepared from A431 cells (obtained from the ATCC) and PTK activity of these receptors was assayed; endogenous in cells; host or cells: A431 cells (ATCC); settings: EGF receptors from A431 cells; copoly Glu6Ala3Tyr1 substrate; analysis according to Dixon; read-out: Klnh, dissociation constant of the PTK-inhibitor complex
# T1 sequence (P00533 25-1210): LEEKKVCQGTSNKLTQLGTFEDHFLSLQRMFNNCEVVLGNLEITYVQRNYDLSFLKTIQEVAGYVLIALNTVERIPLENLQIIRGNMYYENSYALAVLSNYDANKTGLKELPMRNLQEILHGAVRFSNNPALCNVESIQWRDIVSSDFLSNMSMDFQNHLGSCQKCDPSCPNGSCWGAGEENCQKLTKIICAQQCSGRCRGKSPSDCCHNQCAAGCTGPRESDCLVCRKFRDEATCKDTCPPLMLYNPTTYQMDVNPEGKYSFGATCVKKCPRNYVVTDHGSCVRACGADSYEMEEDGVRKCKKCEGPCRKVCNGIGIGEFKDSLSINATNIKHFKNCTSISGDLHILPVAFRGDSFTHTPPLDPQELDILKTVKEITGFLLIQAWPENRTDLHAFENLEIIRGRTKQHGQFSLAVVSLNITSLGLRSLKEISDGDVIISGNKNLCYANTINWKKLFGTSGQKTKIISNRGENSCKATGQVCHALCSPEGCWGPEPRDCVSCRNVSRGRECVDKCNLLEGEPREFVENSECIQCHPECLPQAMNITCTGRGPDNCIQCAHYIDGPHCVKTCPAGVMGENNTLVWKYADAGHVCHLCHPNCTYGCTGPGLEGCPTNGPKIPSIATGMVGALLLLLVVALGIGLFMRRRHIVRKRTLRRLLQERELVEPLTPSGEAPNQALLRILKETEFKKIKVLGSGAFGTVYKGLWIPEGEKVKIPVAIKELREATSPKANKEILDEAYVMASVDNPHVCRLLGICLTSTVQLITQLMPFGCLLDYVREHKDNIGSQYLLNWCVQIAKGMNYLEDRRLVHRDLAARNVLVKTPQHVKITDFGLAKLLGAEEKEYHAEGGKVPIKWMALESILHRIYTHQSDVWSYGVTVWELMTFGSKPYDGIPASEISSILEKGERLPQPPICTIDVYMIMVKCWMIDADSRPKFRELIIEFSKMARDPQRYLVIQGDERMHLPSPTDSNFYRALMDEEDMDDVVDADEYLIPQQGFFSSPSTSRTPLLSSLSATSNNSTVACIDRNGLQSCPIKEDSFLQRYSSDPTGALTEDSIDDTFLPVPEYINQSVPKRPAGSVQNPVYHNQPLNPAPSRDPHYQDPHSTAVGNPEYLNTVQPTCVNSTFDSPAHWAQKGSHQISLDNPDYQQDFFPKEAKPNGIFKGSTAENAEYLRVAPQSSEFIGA
# Experimental: The different KInh values were determined by the analysis according to Dixon.
# EGF-receptor purification is based on the procedure of Yarden and Schlessinger. A431 cells are grown in 80 cm^2 bottles in confluency (2×10^7 cells per bottle). The cells are washed twice with PBS and harvested with PBS containing 1.0 mmol EDTA (1 hour at 37° C.), and centrifuged at 600 g for 10 minutes. The cells are solubilized in 1 ml per 2×10^7 cells of cold solubilization buffer (50 mmol Hepes buffer, pH 7.6, 1% Triton X-100, 150 mmol NaCl, 5 mmol EGTA, 1 mmol PMSF, 50 μg/ml aprotinin, 25 mmol benzamidine, 5 μg/ml leupeptin, and 10 μg/ml soybean trypsin inhibitor) for 20 minutes at 4° C. After centrifugation at 100000g for 30 minutes, the supernatant is loaded onto a WGA-agarose column (100 μl of packed resin per 2×10^7 cells) and shaken for 2 hours at 4° C. The unabsorbed material is removed and the resin washed twice with HTN buffer (50 mmol Hepes, pH 7.6, 0.1% Triton X-100, 150 mmol NaCl), twice with HTN buffer containing 1 M NaCl, and twice with HTNG buffer (50 mmol Hepes, pH 7.6, 0.1% Triton X-100, 150 mmol NaCl, and 10% glycerol). The EGF receptor is eluted batchwise with HTNG buffer containing 0.5 M N-acetyl-D-glucosamine (200 μl per […] cells). The eluted material is stored in aliquots at −70° C. and diluted before use with TMTNG buffer (50 mmol Tris-Mes buffer, pH 7.6, 0.1% Triton X-100, 150 mmol NaCl, 10% glycerol).
# The concentration of EGF in the assay is 300 nM in a final volume of 40 μl. After 5, 10 or 20 minutes, aliquots of 25 μl are applied onto Whatman 3-mm paper cuttings, which are then soaked in cold 10% TCA containing 0.01 M sodium pyrophosphate. After being washed overnight at 4° C., the paper cuttings are dried and counted, measuring ^32P Cerenkov radiation. […] The EGF response for the poly(GAT) phosphorylation is graphed.
# [2] = test system: cells incubated with EGF or serum; assay: Inhibition of cell proliferation as measured by inhibition of DNA synthesis ([3H]thymidine incorporation); assay type: cell-based
# Experimental: Cells were seeded at 1×10^5 cells per well in 24-well Costar dishes pre-coated with human fibronectin (by incubating for 30 minutes at room temperature with 10 μg/0.5 ml/well). The cells were grown to confluence for 2 days. The medium was changed to DMEM containing 0.5 calf serum for 36-48 hours and the cells were then incubated with EGF (Toyobo, New York, N.Y.) (20 ng/ml) or serum (10% calf serum) and different concentrations of the inhibitory compounds. […] TCA precipitable material was quantitated by scintillation counting (C). […]
# Cells termed HER 14 and K721A (=DK) were prepared by transfecting NIH3T3 cells (clone 2.2) (From C. Fryling, NCI, NIH), which lack endogenous EGF-receptors, with cDNA constructs of wild-type EGF-receptor or mutant EGF-receptor lacking tyrosine kinase activity (in which Lys 721 at the ATP-binding site was replaced by an Ala residue, respectively). All cells were grown in DMEM with 10% calf serum (Hyclone, Logan, Utah).
# EGF receptor [3] = target: T1, EGF receptor; settings: membranes of A431 cells; reported; cited from earlier work
# [4] = [3H]thymidine incorporation halved, cells stimulated with EGF (20 ng/ml), read-out: IC50 - EGF
# [5] = [3H]thymidine incorporation halved, cells stimulated with serum (10% calf serum), read-out: IC50 - FCS
smiles,measurement,setting,value
"COc1cc(C=C(C#N)C#N)cc(O)c1O [Example 2, 3-methoxy-4,5-dihydroxybenzylidene malononitrile]",Ki,EGF receptor [1],2.2 ± 0.3 µM
"CC(C)(C)c1cc(C=C(C#N)C#N)cc(C(C)(C)C)c1O [Example 3, 3,5-di-tert butyl-4-hydroxybenzylidene malononitrile]",IC50,[2]; read-out: IC50 - EGF,0.1 µM
same,IC50,[2]; read-out: IC50 - FCS,0.2 µM
"N#CC(C#N)=C(O)c1cc(O)c(O)c(O)c1 [Example 5, α-Hydroxy-3,4,5-trihydroxybenzylidene malononitrile]",Ki,EGF receptor [1],4.5 µM
"N#CC(=Cc1ccc(O)c(O)c1)C(N)=O [Example 6, α-Cyano-3,4-dihydroxycinnamamide]",Ki,EGF receptor [1],3.5 ± 0.6 µM
"N#CC(=Cc1ccc(O)c(O)c1)C(=O)O [Example 10, α-Cyano-3,4-dihydroxycinnamic acid]",Ki,EGF receptor [1],23.6 µM
"N#CC(C#N)=Cc1ccc(C=O)cc1 [Example 15, 4-Formylbenzylidene malononitrile]",Ki,EGF receptor [1],20 µM
"N#CC(=Cc1ccc(O)c(O)c1)C(=O)Nc1ccccc1 [Example 25, N-Phenyl-α-cyano-3,4-dihydroxycinnamamide]",IC50,[2]; [4],30 µM
same,IC50,[2]; [5],100 µM
"CC(C)(C)c1cc(C=C(C#N)C(N)=S)cc(C(C)(C)C)c1 [Example 26, α-Cyano-β-(3,5-di-tertbutylphenyl)propenethioamide]",IC50,[2]; [4],20 µM
same,IC50,[2]; [5],100 µM
O=CN/C=C/c1cc(O)ccc1O [erbstatin],inhibition of EGF receptor autophosphorylation,EGF receptor [3],inhibits the autophosphorylation of the EGF receptor
